Reference: paper PMC5399447, “Neuroprotective pentapeptide CN-105 is associated with reduced sterile inflammation and improved functional outcomes in a traumatic brain injury murine model” (Scientific Reports, 2017)

Key:
[1] = tested on: degenerating neurons in dentate gyrus of TBI mice; test: Fluoro-Jade B staining of degenerating neurons; format: in vivo, mouse; conditions: 0.05 mg/kg, 24 hours post-injury, 6 vehicle and 6 CN-105 mice, p < 0.00001
Method: To assess the effects of CN-105 on inflammation, neuronal injury and neuronal loss, immunohistochemical(IHC) staining was performed using the F4/80 antibody(a marker for mature microglia and macrophages; rat monoclonal, 1:10,000; Serotec, Raleigh, NC) and the Fluoro-Jade B stain(a marker of degenerating neurons; Histo-Chem Inc. Jefferson, AR) on days 10 and 1, respectively, after TBI. IHC was performed on separate cohorts of mice from those used in neurobehavioral tests. As previously described, mice were anesthetized, euthanized, and perfused with 30 ml phosphate-buffered saline(PBS) via transcardiac puncture. The brains were then immersed in buffered formalin overnight and saturated with 30% sucrose in buffer. Sagittal sections(40 μm) were sliced on a freezing microtome and collected in cryoprotectant solution. […]
For Fluoro-Jade B, brain sections from 12 TBI mice(6 vehicle and 6 CN-105) containing the dorsal hippocampus(5–6 sections per animal) were examined for degenerating neurons using an epifluorescence microscope(Nikon, Tokyo, Japan) with a medium band blue excitation(Nikon B-2A, 450–490 nm) filter set. […] Degenerating neurons were counted and the total number of Fluoro-Jade B-positive neurons per every eighth brain slice was recorded. […]

TBI mice = test: Tolerability after injury; format: in vivo, mouse; conditions: treatment after injury
Method: (§1) CN-105(Ac-VSRRR-amide) was synthesized by Polypeptide Inc.(San Diego, CA) to a purity of >99%, and was delivered in sterile normal saline. Animals were placed in a restrainer(Harvard Apparatus, Holliston, MA), and a single intravenous dose of drug(0.05 mg/kg) was administered by tail vein in a volume of 100 μL. Vehicle treated animals received intravenous injection of 100 μL of normal saline at the same time points. Animals were assigned to treatment group by a coded study identification number after injury using a paper randomization protocol. A block randomization scheme was used, so that an equal number of animals were randomized to each of the treatment groups during concurrent experiments.

[2] = tested on: murine model of intracranial hemorrhage; conditions: cited from earlier work
Excerpt: The possibility that the apoE mimetic peptide modifies sterile inflammation in the central nervous system is particularly relevant after traumatic brain injury, where glial activation and neuroinflammatory responses exacerbate secondary tissue injury. […] For example, there are a number of limitations inherent to all rodent models of traumatic brain injury. This includes the lissencephalic nature of rodent brains, which precludes testing of higher and more subtle cortical functions that are directly applicable to the clinical setting. Moreoever, rodent brains have reduced ratio of white: grey matter as compared to primates, and thus are not ideal to model the diffuse axonal injury that may occur in the clinical s ...

[3] = tested on: murine closed head injury model (TBI); test: Morris Water Maze after closed head injury; format: in vivo, mouse
Excerpt: The murine closed head injury model used in this study was previously described. The closed head impact results in injury to selectively vulnerable neurons in cortex and hippocampus, and is associated with vestibulomotor deficits and long term neurocognitive deficits. Although animals do lose body weight, they rapidly regain spontaneous ventilation, righting reflex, and the ability to ambulate. Briefly, 12–14 week-old C57Bl/6 J male mice(Jackson Laboratories, Bar Harbor, ME) were used. The trachea was intubated after anesthesia induction with 4.6% isoflurane and the lungs were mechanically ventilated with 1.6% isoflurane in 30% O2/70% N2. Core body temperature was maintained at 37 °C through a rectal probe. To avoid basilar skull fracture, ear bars are not used. The animal was secured in a stereotactic device in a prone position on a molded acrylic cast with surgical tape across the shoulders. The intubation tube was also secured to the acrylic cast with tape. The acrylic cast is designed to allow the mouse to have 3 mm of space below the head to allow for acceleration/decelaration of the head in this position. The head was shaved and the scalp was incised to expose the skull and identify anatomical landmarks. A concave 3-mm metallic disc was adhered to the skull immediately caudal to bregma. A 2.0-mm diameter pneumatic impactor(Air-Power Inc., High Point, NC) was used to deliver a single midline impact to the center of the disc surface. The impactor was discharged at 6.8 ± 0.2 m/second with a head displacement of 3 mm. After impact, the animals were allowed to recover spontaneous ventilation and then the tracheas were extubated. Mice were allowed free access to food and water. Sham mice were treated identically except for the absence of impact. All mice were housed in the same facility.
as §1
As described previously the Morris Water Maze assesses spatial learning and memory by testing the ability of mice to locate a submerged platform. The mice were placed in a pool(105 cm diameter) filled with room temperature(25 °C) water made opaque with fat free powdered milk and allowed up to 90 seconds to locate the submerged platform. The mice performed four trials/day for 4 consecutive days(inter-trial interval = 30 min). The mice were introduced in varying quadrants of the pool for each trial but the location of the platform never varied. The latency to locate the platform was recorded, and the 4 trials per day were averaged. Mice were tested on days 28–31 post-injury(n = 11–12 mice per group). A probe trial was administered on day 4 of the experiment 3 hours after the last test trial was completed. For the probe trial, the platform was removed and the mice were allowed to swim freely for 60 seconds. The percent of the time the mice spent in the platform quadrant was quantified.

In the case of Ac-VSRRR-amide [CN-105], the “number of Fluoro-Jade B positive neurons, dorsal hippocampus, compared to vehicle” value [1] is given as “significant decrease in the number of Fluoro-Jade B positive neurons”, the tolerability (TBI mice) is given as “well tolerated” and the functional outcome ([2]; model of intracranial hemorrhage) is given as “improves functional outcome”. For the same substance, the cerebral edema ([2]; murine model of intracranial hemorrhage) was “reduces cerebral edema”, the “Morris Water Maze latency to platform compared to vehicle” value ([3]; 0.05 mg/kg iv 2 h after TBI, days 28-31, p = 0.036) was “significantly reduced time to escape to the platform” and the “Morris Water Maze probe trial compared to vehicle” value ([3]; 0.05 mg/kg iv 2 h after TBI, p = 0.0079) was “performed better on the probe trial”. The “Morris Water Maze swim speed compared to vehicle” value ([3]; 0.05 mg/kg iv 2 h after TBI, p = 0.4968) was “no difference in swim speed”, the “Morris Water Maze neurocognitive performance compared to vehicle” value ([3]; 0.05 mg/kg iv 4 hours post-injury) was “reduced deficit on Morris Water Maze testing” and the “Morris Water Maze probe trial compared to vehicle” value ([3]; 0.05 mg/kg iv 4 hours post-injury, p = 0.0211) was “performed better on the probe trial”. For the same substance, the “Morris Water Maze swim speed compared to vehicle” value ([3]; 0.05 mg/kg iv 4 hours post-injury, p = 0.0567) was “no significant difference in swim speed”.
